Source: patent US20230183643A1, “COMPOSITIONS AND METHODS FOR PRODUCING PLACENTAL CELLS” (Regents of the University of Minnesota, priority 2021, published 2023)
Entries after “also recorded” stand apart in the source; their conditions may differ.

Tests used:
Format in all cases: cell-based, human
IMR-90-4 hiPSCs [1] = assay: PCR and qRT-PCR of trophoblast cell marker transcripts and C19 miRNAs; conditions: for CDX2 transcript level (qRT-PCR) / GATA3 transcript level (qRT-PCR) / KLF4 transcript level (qRT-PCR) / KRT7 transcript level (qRT-PCR): 5 days of incubation, compared to UM alone (FIG. 10); for CDX2 mRNA transcript level (PCR / RT-PCR): after 5 days in UM with 1 μM RA, 8 μM CHIR, RA+CHIR or 1 μM SU6656
Description: For differentiation, 70% confluent stem cells were rinsed with DPBS (Gibco) and pre-warmed Accutase was added to the wells. Cells were then placed at 37° C. for 5-7 minutes. Following incubation, cells were removed from the well with a p1000 pipette. The cells in Accutase solution were then added to a conical tube containing an equal volume of fresh media and spun down at 200×g for 5 minutes. The cells were then resuspended and seeded on Matrigel-coated plates at 6,000 cells/cm^2 in TeSR-E8 or mTeSR Plus with 5 μM ROCK inhibitor (Y-27632, Stem Cell Tech). Cells were maintained in E8 or mTeSR Plus for two more days, and then the medium was changed to unconditioned medium (UM): […] RA and/or CHIR were excluded in control experiments (FIG. 1), as described. Cell culture media was changed daily for five days. The induced multipotent placental cells produced by this method are termed iMPC1 cells (also referred herein, as iMPC1-D5 cells). As described herein, the cells may alternatively be exposed to RA+CHIR for 3 or 4 days. For example, iMPC1-D3 and iMPC1-D4, may also be produced wherein the cells are exposed to RA+CHIR for 3 and 4 days, respectively. Cell pellets were collected and lysed using QiaShredder columns (Qiagen). RNA was isolated using the RNeasy Mini Kit (Qiagen) as the manufacturer recommends, including incubation with DNase I (RNAse-free DNase Set, Qiagen). Collected RNA was quantified using a NanoDrop. Reverse transcription was performed on 1000 ng RNA using the Omni script RT Kit (Qiagen). RNA with Oligo-dT primer (Life Tech) was denatured for 5 minutes at 65° C. before the remaining elements were added and incubated at 37° C. for 1 hour. Quantitative real time PCR (qRT-PCR) was performed using iTaq Universal SYBR Green Supermix (Bio Rad) as the manufacturer recommends. Primers (Table 2) were added at 250 nM each (forward and reverse). Analysis was performed on a Bio Rad CFX Connect Real-Time PCR system. GAPDH was used as a reference gene, and error was propagated using the […] method. PCR was performed identically as above through the reverse transcription step to generate cDNA. GoTaq Master Mix (Promega) was used for PCR per the manufacturer's instructions. Primers (Table 2) were added at […] each. PCR products were visualized on a 2% agarose gel containing SYBR Safe (Thermo Fisher) after electrophoresis at […] for 100 minutes. Gels were imaged using a ChemiDoc Touch Gel/Blot Reader (Bio Rad).

IMR-90-4 hiPSCs [2] = assay: Immunostaining for pluripotency and lineage-specific markers after treatment; conditions: for CDX2 protein expression (immunostaining): after 5 days incubation, 1 μM RA, 8 μM CHIR-99021, 1 μM SU6656 or RA+CHIR in UM or E6; for Keratin 8 expression (immunostaining): UM+1 μM RA or UM+1 μM SU6656
Description: For differentiation, 70% confluent stem cells were rinsed with DPBS (Gibco) and pre-warmed Accutase was added to the wells. Cells were then placed at 37° C. for 5-7 minutes. Following incubation, cells were removed from the well with a p1000 pipette. The cells in Accutase solution were then added to a conical tube containing an equal volume of fresh media and spun down at 200×g for 5 minutes. The cells were then resuspended and seeded on Matrigel-coated plates at 6,000 cells/cm^2 in TeSR-E8 or mTeSR Plus with 5 μM ROCK inhibitor (Y-27632, Stem Cell Tech). Cells were maintained in E8 or mTeSR Plus for two more days, and then the medium was changed to unconditioned medium (UM): […] RA and/or CHIR were excluded in control experiments (FIG. 1), as described. Cell culture media was changed daily for five days. The induced multipotent placental cells produced by this method are termed iMPC1 cells (also referred herein, as iMPC1-D5 cells). As described herein, the cells may alternatively be exposed to RA+CHIR for 3 or 4 days. For example, iMPC1-D3 and iMPC1-D4, may also be produced wherein the cells are exposed to RA+CHIR for 3 and 4 days, respectively. For immunocytochemistry analysis, cells were rinsed 2× with PBS and then fixed for 10 minutes with 4% paraformaldehyde (PFA) at room temperature. […] Primary antibodies (Table 1A) were diluted into PBSGT and incubated on cells overnight at 4° C. Cells were washed 3× in PBST for 15 minutes, and then secondary antibodies (Table 1B) were diluted 1:500 in PBSGT and incubated on the cells for 1 hour at room temperature. Following a 10-minute PBS wash, cells were incubated with a DAPI solution for 10 minutes. Another 10-minute PBS wash was performed before the cells were imaged on an EVOS microscope.

IMR-90-4 hiPSCs [3] = assay: Flow cytometry of CDX2, Oct-4, GATA3 and Keratin 7 in hiPSCs differentiated with RA and/or CHIR; conditions: 5 days in UM, 1 μM RA with or without 8 μM CHIR
Description: For differentiation, 70% confluent stem cells were rinsed with DPBS (Gibco) and pre-warmed Accutase was added to the wells. Cells were then placed at 37° C. for 5-7 minutes. Following incubation, cells were removed from the well with a p1000 pipette. The cells in Accutase solution were then added to a conical tube containing an equal volume of fresh media and spun down at 200×g for 5 minutes. The cells were then resuspended and seeded on Matrigel-coated plates at 6,000 cells/cm^2 in TeSR-E8 or mTeSR Plus with 5 μM ROCK inhibitor (Y-27632, Stem Cell Tech). Cells were maintained in E8 or mTeSR Plus for two more days, and then the medium was changed to unconditioned medium (UM): DMEM/F12 with 20% Knockout serum replacement, MEM non-essential amino acids (1×), GlutaMAX (lx, Life Tech), and 0.1 mM β-mercaptoethanol (Sigma), containing 1 μM retinoic acid (RA, Sigma) and […] (Tocris). RA and/or CHIR were excluded in control experiments (FIG. 1), as described. Cell culture media was changed daily for five days. The induced multipotent placental cells produced by this method are termed iMPC1 cells (also referred herein, as iMPC1-D5 cells). […]
Cells were rinsed 2× with PBS and then pre-warmed Accutase was added to the wells. […] Plots shown are representative of a single independent replicate, but medians and standard deviations were calculated from three independent replicates.

Row | SMILES | CDX2 transcript level (qRT-PCR) (IMR-90-4 hiPSCs [1]) | GATA3 transcript level (qRT-PCR) (IMR-90-4 hiPSCs [1]) | KLF4 transcript level (qRT-PCR) (IMR-90-4 hiPSCs [1]) | KRT7 transcript level (qRT-PCR) (IMR-90-4 hiPSCs [1]) | CDX2 mRNA transcript level (PCR / RT-PCR) (IMR-90-4 hiPSCs [1]) | CDX2 protein expression (immunostaining) (IMR-90-4 hiPSCs [2]) | Keratin 8 expression (immunostaining) (IMR-90-4 hiPSCs [2]; 5 days) | interquartile range (IQR) of CDX2 expression (flow cytometry) (IMR-90-4 hiPSCs [3]) | CDX2 median expression intensity (flow cytometry) (IMR-90-4 hiPSCs [3]; p<0.001) | Keratin 18 (KRT18) expression (immunostaining) (IMR-90-4 hiPSCs [2]; 1 μM RA in UM, 5 days) | Oct-4 expression (immunostaining) (IMR-90-4 hiPSCs [2]; 1 μM RA in UM, 5 days) | lowest concentration tested which resulted in CDX2 expression (IMR-90-4 hiPSCs [2]; 5 days in UM, 0.1, 1 and 10 μM RA tested) [µM]
1 | Cc1cnc(-c2cnc(NCCNc3ccc(C#N)cn3)nc2-c2ccc(Cl)cc2Cl)[nH]1 [CHIR-99021, 6-[[2-[[4-(2,4-Dichlorophenyl)-5-(5-methyl-1H-imidazol-2-yl)-2-pyrimidinyl]amino]ethyl]amino]-3-pyridinecarbonitrile] | upregulating | compromised the expression | compromised the expression | compromised the expression | low levels of CDX2 expression | unable to induce CDX2 protein expression | – | – | – | – | – | –
2 | CN(C)S(=O)(=O)c1ccc2c(c1)/C(=C/c1cc3c([nH]1)CCCC3)C(=O)N2 [SU6656] | – | – | – | – | restricted to the RA condition | restricted to the RA condition | expressed in all conditions | – | – | – | – | –
3 | CC1=C(/C=C/C(C)=C/C=C/C(C)=C/C(=O)O)C(C)(C)CCC1 [RA, retinoic acid] | upregulation | upregulation | upregulation | upregulation | heightened expression; also recorded: restricted to the RA condition | gained expression; also recorded: restricted to the RA condition | expressed in all conditions | 119 | 1348±42 | gained expression | lost expression | 1
